Values quoted from earlier work in patent US12090150B2, “Deuterated analogs of elacridar” (priority 2018, dated 2024).

Assays:
[1] = tested on: P-gp/BCRP pumps located in the GI tract; conditions: cancer patients
[2] = tested on: P-gp and BCRP at the blood brain barrier; conditions: rodents; morphine, amprenavir, imatinib, dasatinib, gefitinib, sorafenib, sunitinib

COc1cc2c(cc1OC)CN(CCc1ccc(NC(=O)c3cccc4c(=O)c5cccc(OC)c5[nH]c34)cc1)CC2 [elacridar, 9,10-dihydro-5-methoxy-9-oxo-N-[4-[2-(1,2,3,4-tetrahydro-6,7-dimethoxy-2-isoquinolinyl)ethyl]phenyl]-4-acridine-carboxamide]
oral absorption of coadministered paclitaxel (P-gp substrate) and topotecan (BCRP substrate) [1]: improved
solubility in water: practically insoluble in water
increase of drug levels in the brain of coadministered pump substrates [2]: some success
